Test results taken from the NIST ThermoML archive (doi:10.1016/j.jct.2016.04.024).
Numbers after ± are expanded uncertainties.

How the values were obtained:
[1] = 100 kPa, Liquid; for speed of sound: Frequency=3 MHz, Sing-around technique in a fixed-path interferometer; for mass density: Vibrating tube method
[2] = xn = mol fraction of the nth substance listed; settings: 100 kPa, Liquid; for speed of sound: Frequency=3 MHz, Sing-around technique in a fixed-path interferometer; for mass density: Vibrating tube method

CCCCn1cc[n+](C)c1.F[B-](F)(F)F [1-butyl-3-methylimidazolium tetrafluoroborate]
speed of sound ([1]; 293.15 K): 1577.5 ± 1.6 m/s
mass density ([1]; 293.15 K): 1203.63 ± 1.1 kg/m3

CCCCn1cc[n+](C)c1.F[B-](F)(F)F [1-butyl-3-methylimidazolium tetrafluoroborate] + Nc1ccccc1
speed of sound ([2]; 293.15 K, x1 = 1): 1577.5 ± 1.6 m/s
mass density ([2]; 293.15 K, x1 = 1): 1203.63 ± 1.1 kg/m3
speed of sound ([2]; 303.15 K, x1 = 1): 1553.2 ± 1.6 m/s
mass density ([2]; 303.15 K, x1 = 1): 1195.18 ± 1.1 kg/m3
speed of sound ([2]; 313.15 K, x1 = 1): 1529.7 ± 1.6 m/s
mass density ([2]; 313.15 K, x1 = 1): 1188.04 ± 1.1 kg/m3
speed of sound ([2]; 323.15 K, x1 = 1): 1506.8 ± 1.6 m/s
mass density ([2]; 323.15 K, x1 = 1): 1180.98 ± 1.1 kg/m3

Nc1ccccc1 [aniline]
speed of sound ([1]; 293.15 K): 1656.8 ± 1.3 m/s
mass density ([1]; 293.15 K): 1021.69 ± 1 kg/m3
speed of sound ([1]; 303.15 K): 1618.3 ± 1.3 m/s
mass density ([1]; 303.15 K): 1013.04 ± 1 kg/m3
speed of sound ([1]; 313.15 K): 1580 ± 1.3 m/s
mass density ([1]; 313.15 K): 1004.36 ± 1 kg/m3
speed of sound ([1]; 323.15 K): 1541.9 ± 1.3 m/s
mass density ([1]; 323.15 K): 995.66 ± 1 kg/m3

Nc1ccccc1 [aniline] + CCCCn1cc[n+](C)c1.F[B-](F)(F)F
speed of sound ([2]; 293.15 K, x2 = 0): 1656.8 ± 1.3 m/s
speed of sound ([2]; 293.15 K, x2 = 0.1001): 1661 ± 1.4 m/s
speed of sound ([2]; 293.15 K, x2 = 0.4991): 1624.8 ± 1.4 m/s
speed of sound ([2]; 293.15 K, x2 = 0.6032): 1610.6 ± 1.5 m/s
speed of sound ([2]; 293.15 K, x2 = 0.7021): 1599.8 ± 1.5 m/s
speed of sound ([2]; 293.15 K, x2 = 0.7907): 1592.7 ± 1.5 m/s
speed of sound ([2]; 293.15 K, x2 = 0.9026): 1584.1 ± 1.6 m/s
mass density ([2]; 293.15 K, x2 = 0): 1021.69 ± 1 kg/m3
mass density ([2]; 293.15 K, x2 = 0.1001): 1058.27 ± 1.5 kg/m3
mass density ([2]; 293.15 K, x2 = 0.4991): 1150.32 ± 1.5 kg/m3
mass density ([2]; 293.15 K, x2 = 0.6032): 1163.88 ± 1.6 kg/m3
mass density ([2]; 293.15 K, x2 = 0.7021): 1175.38 ± 1.6 kg/m3
mass density ([2]; 293.15 K, x2 = 0.7907): 1184.36 ± 1.6 kg/m3
mass density ([2]; 293.15 K, x2 = 0.9026): 1194.78 ± 1.6 kg/m3
speed of sound ([2]; 303.15 K, x2 = 0): 1618.3 ± 1.3 m/s
speed of sound ([2]; 303.15 K, x2 = 0.1001): 1626.5 ± 1.4 m/s
speed of sound ([2]; 303.15 K, x2 = 0.4991): 1598.3 ± 1.4 m/s
speed of sound ([2]; 303.15 K, x2 = 0.6032): 1584.8 ± 1.5 m/s
speed of sound ([2]; 303.15 K, x2 = 0.7021): 1574.8 ± 1.5 m/s
speed of sound ([2]; 303.15 K, x2 = 0.7907): 1568.5 ± 1.5 m/s
speed of sound ([2]; 303.15 K, x2 = 0.9026): 1559.7 ± 1.6 m/s
mass density ([2]; 303.15 K, x2 = 0): 1013.04 ± 1 kg/m3
mass density ([2]; 303.15 K, x2 = 0.1001): 1050.3 ± 1.4 kg/m3
mass density ([2]; 303.15 K, x2 = 0.4991): 1143.1 ± 1.5 kg/m3
mass density ([2]; 303.15 K, x2 = 0.6032): 1156.61 ± 1.6 kg/m3
mass density ([2]; 303.15 K, x2 = 0.7021): 1168.21 ± 1.6 kg/m3
mass density ([2]; 303.15 K, x2 = 0.7907): 1177.25 ± 1.6 kg/m3
mass density ([2]; 303.15 K, x2 = 0.9026): 1187.71 ± 1.6 kg/m3
speed of sound ([2]; 313.15 K, x2 = 0): 1580 ± 1.3 m/s
speed of sound ([2]; 313.15 K, x2 = 0.1001): 1592 ± 1.4 m/s
speed of sound ([2]; 313.15 K, x2 = 0.4991): 1571.9 ± 1.4 m/s
speed of sound ([2]; 313.15 K, x2 = 0.6032): 1559.4 ± 1.5 m/s
speed of sound ([2]; 313.15 K, x2 = 0.7021): 1549.2 ± 1.5 m/s
speed of sound ([2]; 313.15 K, x2 = 0.7907): 1540.8 ± 1.5 m/s
speed of sound ([2]; 313.15 K, x2 = 0.9026): 1535.8 ± 1.6 m/s
mass density ([2]; 313.15 K, x2 = 0): 1004.36 ± 1 kg/m3
mass density ([2]; 313.15 K, x2 = 0.1001): 1042.33 ± 1.4 kg/m3
mass density ([2]; 313.15 K, x2 = 0.4991): 1135.81 ± 1.5 kg/m3
mass density ([2]; 313.15 K, x2 = 0.6032): 1149.6 ± 1.5 kg/m3
mass density ([2]; 313.15 K, x2 = 0.7021): 1161.22 ± 1.6 kg/m3
mass density ([2]; 313.15 K, x2 = 0.7907): 1170.51 ± 1.6 kg/m3
mass density ([2]; 313.15 K, x2 = 0.9026): 1180.84 ± 1.6 kg/m3
speed of sound ([2]; 323.15 K, x2 = 0): 1541.9 ± 1.3 m/s
speed of sound ([2]; 323.15 K, x2 = 0.1001): 1557.7 ± 1.3 m/s
speed of sound ([2]; 323.15 K, x2 = 0.2028): 1569.8 ± 1.4 m/s
speed of sound ([2]; 323.15 K, x2 = 0.4991): 1546.1 ± 1.4 m/s
speed of sound ([2]; 323.15 K, x2 = 0.6032): 1534.7 ± 1.5 m/s
speed of sound ([2]; 323.15 K, x2 = 0.7021): 1525.1 ± 1.5 m/s
speed of sound ([2]; 323.15 K, x2 = 0.7907): 1518.5 ± 1.5 m/s
speed of sound ([2]; 323.15 K, x2 = 0.9026): 1512.4 ± 1.5 m/s
mass density ([2]; 323.15 K, x2 = 0): 995.66 ± 1 kg/m3
mass density ([2]; 323.15 K, x2 = 0.1001): 1034.33 ± 1.4 kg/m3
mass density ([2]; 323.15 K, x2 = 0.2028): 1068.14 ± 1.5 kg/m3
mass density ([2]; 323.15 K, x2 = 0.4991): 1128.64 ± 1.5 kg/m3
mass density ([2]; 323.15 K, x2 = 0.6032): 1142.78 ± 1.5 kg/m3
mass density ([2]; 323.15 K, x2 = 0.7021): 1154.4 ± 1.6 kg/m3
mass density ([2]; 323.15 K, x2 = 0.7907): 1163.73 ± 1.6 kg/m3
mass density ([2]; 323.15 K, x2 = 0.9026): 1173.92 ± 1.6 kg/m3
